Test results published in US20240374739A1, “BILE ACID CONJUGATE” (Curtin University, priority 2021, published 2024).
Entries after “also recorded” stand apart in the source; their conditions may differ.

How the values were obtained:
[1] = test system: diabetic db/db mice; experiment: Oxidative stress and neuroinflammation (8dOHG, GFAP, Iba-1 expression) in diabetic db/db mice; type: in vivo; details: for expression of 8dOHG in HPF: db/db mice (FIG. 28A); for expression of 8dOHG in CTX: db/db mice (FIG. 28B); for expression of GFAP in HPF: db/db mice (FIG. 28C); for expression of GFAP in CTX: db/db mice (FIG. 28D); for expression of Iba-1 in HPF: db/db mice (FIG. 28E); for expression of Iba-1 in CTX: db/db mice (FIG. 28F)
Source text: (§1) In this study, 4-5 week old diabetic db/db mice were put onto a diet containing probucol 0.1% (w/w) or HA-1 0.2% (w/w) for either 10 or 24 weeks, till the age of 14 or 28 weeks, respectively. Passive avoidance test was used to assess short-term memory. Subsequently, the mice were sacrificed to obtain plasma and brain tissue samples for further analyses.
GFAP is a marker of astrocyte activation, which may confer anti-inflammatory effect.
Iba-1 expression indicates microglial activation, which is a surrogate marker of neuroinflammation.

[2] = test system: diabetic db/db mice; experiment: Passive Avoidance Test in diabetic db/db mice (Experimental Example 5); type: in vivo; details: administered from 5 weeks of age, tested at 14 weeks
Description: Cognitive function in diabetic db/db mice was tested with Passive Avoidance and Novel Object Recognition tests. For both tests, the higher the value, the better the memory.
The mice were administered with either probucol, HA-1 or apoCIII antisense from 5 weeks of age, and cognitive performance was tested at 14 weeks of age.

[3] = test system: rat model of repeated sub-concussion; experiment: Blood-brain barrier integrity (IgG extravasation), rat model of repeated sub-concussion; type: in vivo, Female PVG rats; details: rats, 12-week repeated sub-concussion
Source text: (§2) Female PVG rats aged 5-7 weeks were used. Under complete anaesthesia with isoflurane, a 25 g weight was dropped onto lambda of the skull from a 1 m height. This was repeated consecutively for 10 times per procedure. The procedure was repeated 3 times per week (i.e., Monday, Wednesday, Friday) for the duration of 12 weeks. Sham group rats received the same procedure without the weight drops. The probucol treatment group received probucol which was supplemented into the diet at 0.1% w/w. The HA-1 treatment group received HA-1 also in the diet at 0.2% w/w for the entire duration of the study.
(§3) The rats were then sacrificed to obtain brain tissue for further analyses.
The increase of IgG extravasation in SC rats indicates disruption of the BBB, allowing blood-borne IgG to leak into the brain.

[4] = test system: rat model of repeated sub-concussion; experiment: Rotarod test, rat model of repeated sub-concussion (Experimental Example 6); type: in vivo, Female PVG rats; details: rats, 12-week repeated sub-concussion; probucol 0.1% w/w, HA-1 0.2% w/w in diet (FIG. 20A)
Source text: as §2
(§4) After the completion of 12-week sub-concussion procedures, neuromotor function was tested with established rotarod and beamwalk tests. On beamwalk, the higher the slips show, the more impairment. On rotarod, the lower the latency indicates the more impairment.

[5] = test system: rat model of repeated sub-concussion; experiment: Neuronal oxidative stress (8dOHG expression), rat model of repeated sub-concussion; type: in vivo, Female PVG rats; details: rats, 12-week repeated sub-concussion
Source text: as §2, §3

[6] = test system: diabetic db/db mice; experiment: Diabetic phenotype: plasma glucose, triglycerides, insulin, cholesterol in diabetic db/db mice; type: in vivo; details: for plasma cholesterol: 14 and 28 weeks of age (FIGS. 23G and 23H)
Source text: as §1
Elevation in plasma glucose, triglycerides and insulin are typical signs of diabetes, with cholesterol to lesser extent. Levels of plasma glucose, plasma triglyceride, plasma insulin, and plasma cholesterol levels were measured at 14 weeks of age and at 28 weeks of age (FIG. 23) (*p<0.05, **p<0.01, ***p<0.001, ****p<0.0001, n=12).

[7] = test system: diabetic db/db mice; experiment: Small intestinal apoB and Aβ in diabetic db/db mice; type: in vivo
Source text: as §1

[8] = test system: rat model of repeated sub-concussion; experiment: Beamwalk test, rat model of repeated sub-concussion (Experimental Example 6); type: in vivo, Female PVG rats; details: rats, 12-week repeated sub-concussion, 2 cm beam; probucol 0.1% w/w, HA-1 0.2% w/w in diet (FIG. 20B)
Source text: as §2, §4

[9] = test system: diabetic db/db mice; experiment: Passive avoidance test (short-term memory) in diabetic db/db mice (Experimental Example 7); type: in vivo; details: 14 and 28 weeks of age, compared to the control mice
Source text: as §1

[10] = test system: diabetic db/db mice; experiment: BBB integrity (IgG extravasation) in diabetic db/db mice; type: in vivo; details: for IgG extravasation in CTX: 28-week old
Source text: as §1

[11] = test system: OC-1 cells; experiment: Seahorse bioenergetics experiment (oxygen consumption rate) after cisplatin; type: cell-based
Description: Mitochondrial function was analysed by measuring oxygen consumption rate (OCR) using real-time Seahorse Flux Analyser XF 96 (Seahorse Bioscience, USA) with our well-established method (Kovacevic, Bozica, et al. “Novel hydrogel comprising non-ionic copolymer with various concentrations of pharmacologically active bile acids for cellular injectable gel.” Colloids and Surfaces B: Biointerfaces (2022): 113014). Briefly, the first injection was with media without glucose, with subsequent ATP synthase inhibitor oligomycin and FCCP (carbonyl cyanide-p-trifluoromethoxy phenylhydrazone) and the final injection was complex […] inhibitors Rotenone+antimycin A 77. The result was automatically generated and analysed by the wave software. The OC-1 cells were pre-treated with cisplatin at three different concentrations (20, 30 and 40 μM) for 24 or 48 hours to induce cytotoxicity prior to the seahorse bioenergetics assays.

[12] = test system: Rats subjected to sub-concussion (SC); experiment: Beam walk test, brain injury (sub-concussion) study (Experimental Example 3); type: in vivo
Source text: Repeated sub-concussive head impacts are reported to impair psychomotor function. Rats were subjected to sham procedure, sub-concussion (SC) with control diet (AlN93M), SC with probucol, SC with aged garlic extract (AGE), or SC with HA-1 for 12 weeks.
Both rotarod and beam walk tests assess neuromotor function. On beam walk, the higher the slips show the more impairment. On rotarod, the lower the latency indicates the more impairment.

[13] = 14 weeks of age, probucol 0.1% (w/w), HA-1 0.2% (w/w) in diet
[14] = sub-concussion, 1, 2 and 3 cm beam, at 12 weeks
[15] = sub-concussion, 2 cm beam, after 6 weeks

Structure (SMILES): CC(=O)O[C@@H]1CC[C@@]2(C)[C@H](CC[C@@H]3[C@@H]2CC[C@]2(C)[C@@H]([C@H](C)CCC(=O)Oc4c(C(C)(C)C)cc(SC(C)(C)Sc5cc(C(C)(C)C)c(O)c(C(C)(C)C)c5)cc4C(C)(C)C)CC[C@@H]32)C1 [HA-1, 2,6-di-tert-butyl-4-((2-((3,5-di-tert-butyl-4-hydroxyphenyl)thio)propan-2-yl)thio)phenyl (4R)-4-[(3R,5R,8R,9S,10S,13R,14S,17R)-3-acetoxy-10,13-dimethyl-2,3,4,5,6,7,8,9,11,12,14,15,16,17-tetradecahydro-1H-cyclopenta[a]phenanthren-17-yl]pentanoate]
- expression of 8dOHG in HPF [1]: better efficacy particularly in HPF
- expression of 8dOHG in CTX [1]: attenuated
- expression of GFAP in HPF [1]: significant recovery
- expression of GFAP in CTX [1]: ameliorated similarly
- expression of Iba-1 in HPF [1]: substantially reduced the expression of Iba-1
- expression of Iba-1 in CTX [1]: substantially reduced the expression of Iba-1
- Passive Avoidance Test latency (short-term memory) [2]: completely restore the memory; also recorded: equivalent latency to Neg control and probucol group mice
- IgG extravasation in cortex (CTX) [3]: more effective than probucol in attenuating BBB disruption
- IgG extravasation in hippocampal formation (HPF) [3]: more effective than probucol in attenuating BBB disruption
- rotarod latency [4]: significant increase in the latency
- expression of 8dOHG (oxidative stress) in HPF and CTX [5]: substantially attenuated the cerebral oxidative stress levels
- plasma cholesterol [6]: no beneficial effects on plasma cholesterol
- plasma insulin ([6]; 14 weeks of age): significantly reduced
- plasma triglycerides ([6]; 14 weeks of age): significantly attenuated plasma triglycerides
- plasma / blood glucose [6, 13]: modest decrease in blood glucose
- plasma / blood glucose ([6]; 28 weeks of age): significantly reduced blood glucose with HA-1 presenting greater effects
- plasma insulin ([6]; 28 weeks of age): lost the ameliorative effects on insulin
- plasma triglycerides ([6]; 28 weeks of age): significantly reduced plasma triglycerides
- small intestinal Aβ ([7]; 14 weeks of age): comparable or superior effects
- small intestinal apoB ([7]; 14 weeks of age): significantly attenuated
- small intestinal Aβ ([7]; 28 weeks of age): comparable or superior effects
- small intestinal apoB ([7]; 28 weeks of age): no longer seen
- foot slips in beamwalk test [8]: completely normalised
- passive avoidance latency (short-term memory) [9]: significantly increased the latency
- IgG extravasation in HPF ([10]; 14 weeks of age): significantly attenuated
- IgG extravasation in CTX [10]: significantly reduced
- IgG extravasation in HPF ([10]; 28 weeks): significantly attenuated the BBB breakdown
- oxygen consumption rate (OCR) ([11]; OC-1 cells after 24 hours exposure to cisplatin (20, 30 and 40 μM)): significant and profound otoprotective effects
- oxygen consumption rate (OCR) ([11]; OC-1 cells after 48 hours exposure to cisplatin (20, 30 and 40 μM)): significantly reverse the cytotoxic effects of cisplatin
- number of slips in beam walk test [12, 14]: did not show significant preventative effects
- number of slips in beam walk test [12, 15]: significant reduction in slips

Structure (SMILES): CC(C)(Sc1cc(C(C)(C)C)c(O)c(C(C)(C)C)c1)Sc1cc(C(C)(C)C)c(O)c(C(C)(C)C)c1 [probucol, 2,6-ditert-butyl-4-[2-(3,5-ditert-butyl-4-hydroxyphenyl)sulfanylpropan-2-ylsulfanyl]phenol]
- expression of 8dOHG in HPF [1]: attenuated
- expression of 8dOHG in CTX [1]: attenuated
- expression of GFAP in HPF [1]: no benefits
- expression of GFAP in CTX [1]: ameliorated similarly
- expression of Iba-1 in HPF [1]: no beneficial effects
- expression of Iba-1 in CTX [1]: no beneficial effects
- Passive Avoidance Test latency (short-term memory) [2]: completely prevented the memory loss
- IgG extravasation in cortex (CTX) [3]: some reduction in the CTX IgG extravasation
- IgG extravasation in hippocampal formation (HPF) [3]: no protection against BBB disruption in HPF
- rotarod latency [4]: did not show any changes
- expression of 8dOHG (oxidative stress) in HPF and CTX [5]: some increase of 8dOHG particularly in the CTX
- plasma cholesterol [6]: no beneficial effects on plasma cholesterol
- plasma insulin ([6]; 14 weeks of age): significantly reduced
- plasma triglycerides ([6]; 14 weeks of age): significantly attenuated plasma triglycerides
- plasma / blood glucose [6, 13]: no significant effects
- plasma / blood glucose ([6]; 28 weeks of age): significantly reduced blood glucose
- plasma insulin ([6]; 28 weeks of age): lost the ameliorative effects on insulin
- plasma triglycerides ([6]; 28 weeks of age): significantly reduced plasma triglycerides
- small intestinal Aβ ([7]; 14 weeks of age): significantly attenuated
- small intestinal apoB ([7]; 14 weeks of age): no significant reduction
- small intestinal Aβ ([7]; 28 weeks of age): significantly attenuated
- foot slips in beamwalk test [8]: modestly attenuated
- IgG extravasation in HPF ([10]; 14 weeks of age): significantly attenuated
- IgG extravasation in CTX [10]: no beneficial effects on CTX IgG extravasation
- IgG extravasation in HPF ([10]; 28 weeks): did not show BBB protection
- number of slips in beam walk test [12, 14]: did not show significant preventative effects
- number of slips in beam walk test [12, 15]: did not indicate any beneficial effects
